One block for each compound: values may come before it.
Assays:
[1] = biological target: Tpl2 (Homo sapiens, UniProt P41279); settings: background statement; cited from earlier work
[2] = biological target: T1, human Cot/Tpl2 kinase (Homo sapiens, UniProt P41279); experiment: Tpl2/Cot kinase assay: GST-MEK1 phosphorylation detected by ELISA (DELFIA Eu); type: biochemical
T1 construct: human Cot/Tpl2 kinase construct encoding residues 30-398; 6His (N); made in house; host or cells: Sf9 insect cells, baculovirus system (BD Biosciences)
T1 sequence (P41279 30-398): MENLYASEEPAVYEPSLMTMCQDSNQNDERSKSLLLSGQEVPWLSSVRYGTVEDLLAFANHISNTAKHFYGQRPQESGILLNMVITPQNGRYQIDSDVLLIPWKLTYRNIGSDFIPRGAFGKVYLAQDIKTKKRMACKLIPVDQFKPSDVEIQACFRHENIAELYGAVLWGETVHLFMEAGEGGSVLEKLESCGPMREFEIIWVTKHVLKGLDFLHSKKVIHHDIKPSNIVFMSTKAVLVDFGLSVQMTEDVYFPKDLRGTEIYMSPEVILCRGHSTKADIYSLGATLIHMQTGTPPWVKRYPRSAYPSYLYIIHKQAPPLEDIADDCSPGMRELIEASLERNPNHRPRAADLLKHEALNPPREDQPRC
How it was run: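 His-tagged human Tpl2 from Sf9 cells, Ni-affinity and size-exclusion purified (monomer). 0.4 nM Tpl2 with 35 nM GST-MEK1, 50 uM ATP, MOPS pH 7.2, 1% DMSO, 1 h at 30° C; EDTA stop. MEK1 Ser217/221 phosphorylation detected by anti-phospho-MEK1 and Eu-labelled secondary ELISA; IC50 fitted.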

[3] = Table 2, Tpl2/Cot kinase, GST-MEK1 substrate, 50 uM ATP
[4] = 0.4 nM Tpl2, 35 nM GST-MEK1, 50 uM ATP, 1 h at 30° C.
[5] = Tpl2/Cot kinase, GST-MEK1 substrate, 50 uM ATP, 1 h at 30° C., Table 2
[6] = Tpl2/Cot kinase, GST-MEK1 substrate, 50 uM ATP

Tpl2, sequence (P41279 whole entry): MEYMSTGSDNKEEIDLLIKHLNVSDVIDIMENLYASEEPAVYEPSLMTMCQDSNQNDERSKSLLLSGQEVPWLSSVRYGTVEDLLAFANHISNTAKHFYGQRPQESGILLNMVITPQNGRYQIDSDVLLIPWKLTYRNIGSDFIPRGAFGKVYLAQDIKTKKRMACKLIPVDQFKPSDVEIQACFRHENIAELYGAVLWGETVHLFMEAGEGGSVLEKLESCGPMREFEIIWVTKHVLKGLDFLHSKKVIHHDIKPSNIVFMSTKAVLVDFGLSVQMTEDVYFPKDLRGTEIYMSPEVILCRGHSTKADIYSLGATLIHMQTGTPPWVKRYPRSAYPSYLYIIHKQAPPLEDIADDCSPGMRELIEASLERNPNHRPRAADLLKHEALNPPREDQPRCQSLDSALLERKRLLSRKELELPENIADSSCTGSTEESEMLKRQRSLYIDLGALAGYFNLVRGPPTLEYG

Compound: CN[C@@H]1C[C@H]2O[C@@](C)([C@@H]1OC)n1c3ccccc3c3c4c(c5c6ccccc6n2c5c31)C(=O)NC4 [staurosporine]
inhibition of Tpl2 [1]: not inhibited

Compound: CN1CCN(C(=O)CNc2cc(Cl)c3ncc(C#N)c(Nc4ccc(F)c(Cl)c4)c3c2)CC1 [Example 468]
IC50 [2, 3]: 360 nM

Compound: CN(C)C(=O)Cn1ccnc1CNc1ccc2ncc(C#N)c(Nc3ccc(F)c(Cl)c3)c2c1 [Example 140, 2-(2-((4-(3-chloro-4-fluorophenylamino)-3-cyanoquinolin-6-ylamino)methyl)-1H-imidazol-1-yl)-N, N-dimethylacetamide]
IC50 [2, 4]: 20 nM

Compound: CC(C)(C)OC(=O)N1CCCN(CCCn2cc(CNc3cc(Cl)c4ncc(C#N)c(Nc5ccc(F)c(Cl)c5)c4c3)nn2)CC1 [Example 763]
IC50 [2, 6]: 120 nM

Compound: N#Cc1cnc2c(Br)cc(NCc3cn(C4CN5CCC4CC5)nn3)cc2c1Nc1ccc(F)c(Cl)c1 (stereo not shown) [Example 838]
IC50 [2, 6]: 10 nM

Compound: N#Cc1cnc2c(Br)cc(NCc3nc[nH]n3)cc2c1Nc1ccc(F)c(Cl)c1 [Example 484]
IC50 [2, 3]: 110 nM

Compound: C#Cc1cccc(Nc2c(C#N)cnc3ccc(NCCN4CCOCC4)cc23)c1 [Example 357]
IC50 [2, 3]: 1300 nM

Compound: CN(C)C(=O)c1cc(NCc2ccccn2)cc2c(Nc3ccc(F)c(Cl)c3)c(C#N)cnc12 [Example 91, 4-(3-chloro-4-fluorophenylamino)-3-cyano-N,N-dimethyl-6-(pyridin-2-ylmethylamino)quinoline-8-carboxamide]
IC50 [2, 4]: 360 nM

Compound: N#Cc1cnc2c(Br)cc(NCc3[nH]cnc3C(F)(F)F)cc2c1Nc1ccc(F)c(Cl)c1 [Example 114, 8-bromo-4-(3-chloro-4-fluorophenylamino)-6-((4-(trifluoromethyl)-1H-imidazol-5-yl)methylamino)quinoline-3-carbonitrile]
IC50 [2, 4]: 310 nM

Compound: N#Cc1cnc2c(Br)cc(NC(=O)Cc3cnc[nH]3)cc2c1Nc1ccc(F)c(Cl)c1 [Example 117, N-(8-bromo-4-(3-chloro-4-fluorophenylamino)-3-cyanoquinolin-6-yl)-2-(1H-imidazol-5-yl)acetamide]
IC50 [2, 4]: > 40000 nM

Compound: CC(C)(CNc1cc(Cl)c2ncc(C#N)c(Nc3ccc(F)c(Cl)c3)c2c1)N1CCOCC1 [Example 450]
IC50 [2, 3]: 2400 nM

Compound: N#Cc1cnc2c(Cl)cc(NCc3cn(CCCN4CCC(F)(F)CC4)nn3)cc2c1Nc1ccc(F)c(Cl)c1 [Example 841]
IC50 [2, 6]: 29 nM

Compound: N#Cc1cnc2c(Br)cc(N)cc2c1Nc1ccc(F)c(Cl)c1 [Example 393]
IC50 [2, 3]: 520 nM

Compound: N#Cc1cnc2cc(N3CCOCC3)c(NCc3cnc[nH]3)cc2c1Nc1ccc(F)c(Cl)c1 [Example 160, 6-((1H-imidazol-5-yl)methylamino)-4-(3-chloro-4-fluorophenylamino)-7-morpholinoquinoline-3-carbonitrile]
IC50 [2, 4]: > 40000 nM

Compound: CN(C)CCCn1cc(CNc2cc(Br)c3ncc(C#N)c(Nc4ccc(F)c(Cl)c4)c3c2)nn1 [Example 480]
IC50 [2, 3]: 20 nM

Compound: CN(C)C(=O)c1ccc2cc(CNc3ccc4ncc(C#N)c(Nc5ccc(F)c(Cl)c5)c4c3)[nH]c2c1 [Example 155, 2-((4-(3-chloro-4-fluorophenylamino)-3-cyanoquinolin-6-ylamino)methyl)-N,N-dimethyl-1H-indole-6-carboxamide]
IC50 [2, 4]: 1500 nM

Other lines, results leading:

IC50 [2, 4]: 5200 nM
Compound: COc1cc(NCCN2CCOCC2)cc2c(Nc3ccc(F)c(Cl)c3)c(C#N)cnc12 [Example 29, 4-(3-Chloro-4-fluoro-phenylamino)-8-methoxy-6-(2-morpholin-4-yl-ethylamino)-quinoline-3-carbonitrile]

IC50 [2, 5]: 5.7 nM
Compound: N#Cc1cnc2c(Cl)cc(NCc3cn(C4CCC(O)CC4)nn3)cc2c1Nc1ccc(F)c(Cl)c1 (stereo not shown) [Example 1041]

IC50 [2, 6]: 82 nM
Compound: CSCCn1cc(CNc2cc(Br)c3ncc(C#N)c(Nc4ccc(F)c(Cl)c4)c3c2)nn1 [Example 682]

IC50 [2, 4]: 14 nM
Compound: Cn1ccnc1CNc1ccc2ncc(C#N)c(Nc3ccc(F)c(Cl)c3)c2c1 [Example 171, 4-(3-chloro-4-fluorophenylamino)-6-((1-methyl-1H-imidazol-2-yl)methylamino)quinoline-3-carbonitrile]

IC50 [2, 3]: 220 nM
Compound: Cc1nc(CNc2cc(Cl)c3ncc(C#N)c(Nc4ccc(F)c(Cl)c4)c3c2)c(C)[nH]1 [Example 431]

IC50 [2, 5]: 240 nM
Compound: CC#CCn1cc(CNc2cc(Cl)c3ncc(C#N)c(Nc4ccc(F)c(Cl)c4)c3c2)nn1 [Example 995]

IC50 [2, 6]: 2.4 nM
Compound: CC(C)C(=O)NCCCn1cc(CNc2cc(Cl)c3ncc(C#N)c(Nc4ccc(F)c(Cl)c4)c3c2)nn1 [Example 911]

IC50 [2, 6]: 3.5 nM
Compound: CC(C)NC(=O)Cn1cc(CNc2cc(Cl)c3ncc(C#N)c(Nc4ccc(F)c(Cl)c4)c3c2)nn1 [Example 813]

IC50 [2, 5]: 430 nM
Compound: N#CCn1cc(CNc2cc(Cl)c3ncc(C#N)c(Nc4ccc(F)c(Cl)c4)c3c2)nn1 [Example 1021]

IC50 [2, 4]: > 40000 nM
Compound: CNc1nc(SC)ncc1CNc1cc(Cl)c2ncc(C#N)c(Nc3ccc(F)c(Cl)c3)c2c1 [Example 280, 8-chloro-4-[(3-chloro-4-fluorophenyl)amino]-6-({[4-(methylamino)-2-(methylthio)pyrimidin-5-yl]methyl]amino)quinoline-3-carbonitrile]

IC50 [2, 6]: 110 nM
Compound: CN(C)C(=O)N1CCC[C@@H]1Cn1cc(CNc2cc(Cl)c3ncc(C#N)c(Nc4ccc(F)c(Cl)c4)c3c2)nn1 [Example 897]

IC50 [2, 4]: 420 nM
Compound: CN(C)C(=O)c1ccc2cc(CNc3ccc4ncc(C#N)c(Nc5ccc(F)c(Cl)c5)c4c3)n(C)c2c1 [Example 156, 2-((4-(3-chloro-4-fluorophenylamino)-3-cyanoquinolin-6-ylamino)methyl)-N,N,1-trimethyl-1H-indole-6-carboxamide]
